Entries after “also recorded” stand apart in the source; their conditions may differ. Counter-ions that a name gives are not always drawn. Like-named read-outs stand apart in the source and are kept apart here.
Columns and labels:
[1] = system: intracerebral human glioblastoma; details: co-administration with paclitaxel compared to paclitaxel alone; cited from earlier work
P-gp [2] = details: P-gp chemically inhibited, mouse or rat; 4; 5; cited from earlier work
P-gp [3] = details: cited from earlier work; for increase in brain distribution in mdr1a/b(−/−) vs. wild-type mice: 2, 3
P-gp at the rat BBB [4] = target: T1, P-gp at the rat BBB (Rattus norvegicus, UniProt Q6PSM0); details: 5.6 µM CsA blood concentration; 18; cited from earlier work
T1 sequence (Q6PSM0 1-1272): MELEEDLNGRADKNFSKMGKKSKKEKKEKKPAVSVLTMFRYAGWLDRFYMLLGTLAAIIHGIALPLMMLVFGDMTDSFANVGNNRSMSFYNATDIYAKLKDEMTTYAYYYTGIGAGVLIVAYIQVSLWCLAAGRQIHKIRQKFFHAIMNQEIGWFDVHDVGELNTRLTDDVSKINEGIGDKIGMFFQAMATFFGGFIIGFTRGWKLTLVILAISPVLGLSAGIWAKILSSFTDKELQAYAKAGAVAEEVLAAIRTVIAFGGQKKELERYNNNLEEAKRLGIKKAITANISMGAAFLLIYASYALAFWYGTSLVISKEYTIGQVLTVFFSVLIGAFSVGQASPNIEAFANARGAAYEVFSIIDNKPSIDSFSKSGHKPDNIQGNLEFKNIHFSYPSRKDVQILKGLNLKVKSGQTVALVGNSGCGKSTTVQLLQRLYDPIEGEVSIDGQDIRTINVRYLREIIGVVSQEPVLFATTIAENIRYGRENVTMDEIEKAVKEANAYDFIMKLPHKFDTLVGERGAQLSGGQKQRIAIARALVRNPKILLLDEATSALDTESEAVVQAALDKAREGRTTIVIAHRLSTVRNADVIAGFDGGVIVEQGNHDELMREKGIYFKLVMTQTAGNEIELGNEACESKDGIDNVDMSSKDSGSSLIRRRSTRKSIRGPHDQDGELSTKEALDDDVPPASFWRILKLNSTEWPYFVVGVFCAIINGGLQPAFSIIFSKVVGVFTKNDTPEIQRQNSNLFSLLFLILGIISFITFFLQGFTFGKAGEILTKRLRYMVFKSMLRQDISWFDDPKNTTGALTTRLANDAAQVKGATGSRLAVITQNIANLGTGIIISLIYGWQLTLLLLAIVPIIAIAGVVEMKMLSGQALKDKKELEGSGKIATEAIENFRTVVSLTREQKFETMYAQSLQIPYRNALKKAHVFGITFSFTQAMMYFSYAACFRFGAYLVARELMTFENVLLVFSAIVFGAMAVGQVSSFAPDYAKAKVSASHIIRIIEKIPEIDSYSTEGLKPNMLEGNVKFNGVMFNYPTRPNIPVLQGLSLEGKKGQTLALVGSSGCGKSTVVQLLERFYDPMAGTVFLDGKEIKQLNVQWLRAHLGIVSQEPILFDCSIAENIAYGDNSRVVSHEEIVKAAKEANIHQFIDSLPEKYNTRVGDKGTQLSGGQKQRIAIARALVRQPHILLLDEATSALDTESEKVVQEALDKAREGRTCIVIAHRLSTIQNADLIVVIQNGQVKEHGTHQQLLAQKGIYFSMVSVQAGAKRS

P-gp at the human BBB [5] = details: tariquidar 6 mg/kg; cited from earlier work
[6] = pseudo steady-state blood CsA and plasma NFV concentrations in rats; assay type: in vivo, rat
P-gp at the rat BBB [7] = target: T1, P-gp at the rat BBB; details: from brain:plasma ratios 0.044 and 0.93
[8] = cited from earlier work
BCRP = details: cited from earlier work
P-gp [9] = target: P-gp (Rattus norvegicus, UniProt Q6PSM0); assay: in vivo; details: Sprague Dawley; for Kp at 2 h: absence of CsA, 120 min; for Kp at 120 min: with maximum P-gp inhibition by CsA
Sequence of P-gp (Rattus norvegicus, UniProt Q6PSM0) (Q6PSM0 1-1272): as above

P-gp at the human BBB [10] = details: for predicted increase in NFV human brain:plasma concentration ratio: prediction based on the rat study alone

SMILES: C/C=C/C[C@@H](C)C(=O)[C@H]1C(=O)N[C@@H](C(C)C)C(=O)N(C)CC(=O)N(C)[C@@H](CC(C)C)C(=O)N[C@@H](C(C)C)C(=O)N(C)[C@@H](CC(C)C)C(=O)N[C@@H](C)C(=O)N[C@H](C)C(=O)N(C)[C@@H](CC(C)C)C(=O)N(C)[C@@H](CC(C)C)C(=O)N(C)[C@@H](C(C)C)C(=O)N1C [PSC833]
- brain tumor volume [1]: significant reduction in the brain tumor volume

SMILES: CN(C)C(=O)C(CCN1CCC(O)(c2ccc(Cl)cc2)CC1)(c1ccccc1)c1ccccc1 [loperamide]
- increase in brain distribution in the presence vs. absence of the P-gp inhibitor (P-gp [2]): 1500%
- increase in brain distribution in mdr1a/b(−/−) vs. wild-type mice (P-gp [3]): 1200%
- increase in total loperamide-radioactivity uptake into the brain of rats (P-gp at the rat BBB [4]): 588%

SMILES: CNC(=O)C(CCN1CCC(O)(c2ccc(Cl)cc2)CC1)(c1ccccc1)c1ccccc1 [dLop, N-desmethyl-loperamide]
- increase in distribution into the human brain (P-gp at the human BBB [5]): ≤ 300%

SMILES: Cc1c(O)cccc1C(=O)N[C@@H](CSc1ccccc1)[C@H](O)CN1C[C@H]2CCCC[C@H]2C[C@H]1C(=O)NC(C)(C)C [NFV, Nelfinavir mesylate]
- effect of CsA on pseudo steady-state plasma NFV concentration ([6]; at 120 min, Student's t-test): did not significantly affect; also recorded: not significantly affected
- time to pseudo steady-state NFV plasma concentration ([6]; i.v. bolus plus constant rate i.v. infusion): ≤ 30 min
- ft(P-gp), not corrected for vascular content (P-gp at the rat BBB [7]): 0.95
- blood: plasma ratio [8]: 0.877
- substrate of BCRP (BCRP): not a substrate
- Kp at 2 h (P-gp [9]; NFV brain:plasma concentration ratio corrected for vascular contamination): 0.014 ± 0.01
- Kp at 2 h (P-gp [9]; NFV brain:plasma concentration ratio, not corrected for vascular contamination): 0.044 ± 0.01
- Kp at 120 min (P-gp [9]; NFV brain:plasma ratio after vascular-content correction): 0.9 ± 0.16
- Kp at 120 min (P-gp [9]; NFV brain:plasma ratio, uncorrected for vascular content): 0.93 ± 0.16
- increase in brain distribution in mdr1a/b(−/−) vs. wild-type mice (P-gp [3]): 3400%
- increase in brain:blood concentration ratio in mdr1a/b(−/−) vs. wild-type mice (P-gp [3]; 5): 3400%
- predicted increase in NFV human brain:plasma concentration ratio (P-gp at the human BBB [10]; CsA blood 1.5 µM): 236%
- predicted increase in the NFV brain:plasma concentration ratio / distribution into the human brain (P-gp at the human BBB [10]; CsA blood 1.5 µM, rat data and in vitro LLCPK1-MDR1 data): 241%
- predicted increase in the NFV brain:plasma concentration ratio at the human BBB (P-gp at the human BBB [10]; CsA blood 2.8 µM, in vitro data scaled using rat in vivo data): 555%
- predicted increase in NFV human brain:plasma concentration ratio (P-gp at the human BBB [10]; CsA blood 2.8 µM): 589%

— article PMC4031293 (Molecular pharmaceutics, 2014)
